Measured values reported in patent US12612386B2, “Heteroaryl-triazole compounds as pesticides” (Bayer Aktiengesellschaft, priority 2020, dated 2026).

Experiments:
Type in all cases: in vivo
[1] = test system: adult cat fleas (Ctenocephalides felis); experiment: Ctenocephalides felis in-vitro contact test, adult cat flea; conditions: 5 μg/cm^2 (=500 g/ha), after 48 hours
Method: Ctenocephalides felis—In-Vitro Contact Tests Adult Cat Flea
(§1) 9 mg compound is solved in 1 mL acetone and diluted with acetone to the desired concentration. 250 μL of the test solution is filled in 25 mL glass test tubes and homogeneously distributed on the inner walls by rotation and tilting on a shaking device (2 h at 30 rpm). With a compound concentration of 900 ppm, an inner surface of 44.7 cm^2 and a homogeneous distribution, a dose of 5 μg/cm^2 is achieved.
(§2) After the solvent has evaporated, each test tube is filled with 5-10 adult cat fleas (Ctenocephalides felis), closed with a perforated lid and incubated in a lying position at room temperature and relative humidity. After 48 hours efficacy is determined. The fleas are patted on the ground of the tubes and are incubated on a heating plate at 45-50° C. for at most 5 minutes. Immotile or uncoordinated moving fleas, which are not able to escape the heat by climbing upwards, are marked as dead or moribund.
An efficacy of 100% means all fleas are dead or moribund; 0% means no fleas are dead or moribund.

[2] = test system: adult brown dog ticks (Rhipicephalus sanguineus); experiment: Rhipicephalus sanguineus in-vitro contact test, adult brown dog ticks; conditions: 48 h, read-out: efficacy (ticks dead or moribund)
Method: Rhipicephalus sanguineus—In-Vitro Contact Tests with Adult Brown Dog Ticks
as §1
as §2, with “brown dog ticks (Rhipicephalus sanguineus),” for “cat fleas (Ctenocephalides felis),”, “ticks” for “fleas”, “ticks,” for “fleas,”
An efficacy of 100% means all ticks are dead or moribund; 0% means no ticks are dead or moribund.

[3] = test system: cattle tick larvae (Rhipicephalus microplus), strain Parkhurst, resistant against synthetic pyrethroids; experiment: Rhipicephalus (Boophilus) microplus in-vitro contact test, larval cattle tick; conditions: 5 μg/cm^2 (=500 g/ha), after 48 hours
Method: Rhipicephalus (Boophilus) Microplus—In-Vitro Contact Tests Larval Cattle Tick (Strain Parkhurst, Resistant Against Synthetic Pyrethroids)
as §1
After the solvent has evaporated, each test tube is filled with 20-50 cattle tick larvae (Rhipicephalus microplus), closed with a perforated lid and incubated in a horizontal position at 85% relative humidity and 27° C. in an incubator. After 48 hours efficacy is determined. The larvae are patted on the ground of the tubes and negative geotactic behavior is recorded.
An efficacy of 100% means all larvae are dead or moribund; 0% means no larvae are dead or moribund.

[4] = test system: fall armyworm larvae (Spodoptera frugiperda); experiment: whole plant or invertebrate; conditions: 168 h
Method in brief: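 Percent kill of Spodoptera frugiperda caterpillars, read 7 days after infestation of dried, spray-treated Zea mays leaf pieces. Spray preparation: compound in acetone plus dimethylformamide, diluted with emulsifier-containing water.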

[5] = test system: larvae of the banded cucumber beetle (Diabrotica balteata); experiment: Diabrotica balteata spray test; conditions: 168 h, 100 g/ha (=32 μg/well), after 7 days, read-out: efficacy (seedling growth)
Method in brief: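 Efficacy is seedling survival after 7 days, where 0% means no seedlings grew and 100% means growth equal to untreated, uninfested controls. Wheat seedlings, germinated on agar for 1 day, were sprayed with the aqueous emulsifier dilution (acetone/DMF solvent) and then exposed to 10–20 banded cucumber beetle larvae.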

[6] = test system: brown planthopper (Nilaparvata lugens); experiment: Nilaparvata lugens spray test; conditions: 96 h
Method: Nilaparvata lugens—Spray Test
• Solvent: 78.0 parts by weight of acetone • 1.5 parts by weight of dimethylformamide • Emulsifier: alkylarylpolyglycol ether
To produce a suitable preparation of active compound, 1 part by weight of active compound is mixed with the stated amount of solvents and is diluted with water, containing an emulsifier concentration of 1000 ppm, to the desired concentration. Further test concentrations are prepared by dilution with emulsifier containing water.
Rice plants (Oryza sativa) are sprayed with a preparation of the active ingredient of the desired concentration and the plants are infested with the brown planthopper (Nilaparvata lugens).
After 4 days mortality in % is determined. 100% means all planthoppers have been killed and 0% means none of the planthoppers have been killed.

[7] = test system: larvae of the southern green stink bug (Nezara viridula); experiment: whole plant or invertebrate; conditions: 96 h
Method in brief: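 Percent mortality of southern green stink bug larvae was recorded at day 4, with 100% meaning all dead. The larvae were placed on barley sprayed with the test solution. That solution was prepared from acetone/dimethylformamide concentrate diluted in emulsifier-containing water (1000 ppm).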

[8] = test system: green peach aphid (Myzus persicae); experiment: Myzus persicae spray test (MYZUPE); conditions: 120 h, 100 g/ha, after 5 days
Method in brief: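 Percent aphid kill, with 0% meaning none killed, was read 5 days after spraying. The preparation (acetone–DMF solvent, water with 1000 ppm emulsifier) was applied to Brassica pekinensis leaf disks carrying mixed-instar green peach aphids.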

[9] = test system: adult mosquitoes Aedes aegypti strain MONHEIM; experiment: Aedes aegypti test (AEDSAE surface treatment & contact assay); conditions: surface concentration 20 mg/m^2, 30 min exposure, 24 hours after contact, read-out: efficacy (mortality)
Method: Aedes aegypti Test (AEDSAE Surface Treatment & Contact Assay)
Solvent: Aceton+2000 ppm rapeseed oil methyl ester (RME)
This solution is pipetted onto a glazed tile and after evaporation of the acetone, adult mosquitoes of the species Aedes aegypti strain MONHEIM are placed onto the dried surface. The exposure time is 30 minutes. Mortality in percent (%) is determined 24 hours after contact of the insects to the treated surface. 100% mortality means that all tested insects are dead, whereas 0% means that no insect died.

SMILES	efficacy (fleas dead or moribund) [1]	pest or weed control at 5 µg/cm2, 500 g/ha [2]	efficacy (larvae dead or moribund) [3]	mortality at 100 g/ha [4]	pest or weed control at 32 µg/disc, 100 g/ha [5]	mortality at 500 g/ha [6]	mortality at 100 g/ha [7]	mortality at 500 g/ha [7]	mortality at 100 g/ha [8]	mortality at 20 mg/m2 [9]
CC(C)N(C)C(=O)c1cc(-n2ncnc2[C@H](C)NC(=O)c2cc(OC(F)F)cc(C3CC3)c2)ncn1 [I-68]	100%	100%	100%	100%						
C[C@H](NC(=O)c1cc(C(F)(F)F)cc(C(F)(F)F)c1)c1ncnn1-c1cc(C(N)=O)ncn1 [I-135]		100%	100%	100%	80%	100%	100%	100%		
CNC(=O)c1cc(-n2ncnc2[C@H](C)NC(=O)c2cc(Br)cc(Br)c2)ncn1 [I-46]	100%		100%	100%	100%			100%	90%	
Cc1nc([C@H](C)NC(=O)c2cc(Cl)cc(Cl)c2)n(-c2cc(C(N)=O)ncn2)n1 [I-95]	100%	100%	100%	100%	100%			100%	90%	
CNC(=O)c1cc(-n2nc(C)nc2[C@H](C)NC(=O)c2cc(Cl)cc(OC(F)(F)F)c2)ncn1 [I-87]	100%	100%	100%	100%	100%			100%	100%	
C[C@H](NC(=O)c1cc(Cl)cc(Cl)c1)c1ncnn1-c1cc(C(N)=O)ncn1 [I-69]	100%	100%	100%	100%	100%			100%	70%	
C[C@H](NC(=O)c1cc(Br)cc(Br)c1)c1ncnn1-c1cc(C#N)ncn1 [I-4]		100%	100%	100%	100%					80 to 100%
Cc1nc([C@H](C)NC(=O)c2cc(Cl)cc(SC(F)(F)F)c2)n(-c2cc(C#N)ncn2)n1 [I-6]		100%	100%	100%	100%					
C[C@H](NC(=O)c1cc(C#N)cc(OC(F)(F)F)c1)c1ncnn1-c1cc(C#N)ncn1 [I-38]	90%		100%	100%	100%	100%		100%		
CC(C)N(C)C(=O)c1cc(-n2ncnc2[C@H](C)NC(=O)c2cc(Br)cc(Br)c2)ncn1 [I-40]				100%	100%				90%	80 to 100%
